Results reported in patent US9200008B2 (ASKA PHARMACEUTICAL CO., LTD., priority 2010, dated 2015).

System: Human prostate cancer cell lines (PC-3 cells)
Test: Measurement of cell death-inducing activity (Test Example 1)
Type: cell-based
Conditions: PC-3, 48 h, 48 hours after addition, tested at 10, 1, 0.1, 0.025 and 0.00625 μmol/L, qualitative evaluation of 10 fields, read-out: Concentration showing the cell death-inducing activity (cell death-inducing rate not less than 40%)
Summary of the method: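 Compound treatment lasted 48 h at 10 to 0.00625 μmol/L (five levels, DMSO as control) on PC-3 cells pre-cultured 48 h at 37 °C, 5% CO2 after seeding at 1×10^5 cells/well. A cell death-inducing rate of 40% or more counted as active.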

SMILES | minimal effective concentration
COc1ccc(/C=N/NC(=O)c2sc(-c3cccc(Cl)c3C)nc2C)cc1O [Example 23-125] | 1 µM
COc1ccc(/C=N/NC(=O)c2sc(-c3cc(C)ccc3C)nc2C)cc1O [Example 23-126] | 1 µM
Cc1ccc(C)c(-c2nc(C)c(C(=O)N/N=C/c3cc(C)c(O)c(C)c3)s2)c1 [Example 23-127] | 1 µM
COc1ccc(/C=N/NC(=O)c2sc(C3CCCCC3)nc2C)cc1O [Example 23-128] | 1 µM
Cc1cc(/C=N/NC(=O)c2sc(C3CCCCC3)nc2C)cc(C)c1O [Example 23-129] | 10 µM
COc1ccc(/C=N/NC(=O)c2sc(-c3cccc(OC)c3C)nc2C)cc1O [Example 23-130] | 1 µM
COc1cccc(-c2nc(C)c(C(=O)N/N=C/c3cc(C)c(O)c(C)c3)s2)c1C [Example 23-131] | 1 µM
COc1ccc(/C=N/NC(=O)c2sc(C)nc2C)cc1O [Example 23-132] | 10 µM
Cc1nc(C)c(C(=O)N/N=C/c2cc(C)c(O)c(C)c2)s1 [Example 23-133] | 10 µM
COc1ccc(/C=N/NC(=O)c2sc(-c3sc(C)nc3C)nc2C)cc1O [Example 23-134] | 1 µM
COc1ccc(/C=N/NC(=O)c2sc(-c3cnccc3C)nc2C)cc1O [Example 23-135] | 1 µM
Cc1ccncc1-c1nc(C)c(C(=O)N/N=C/c2cc(C)c(O)c(C)c2)s1 [Example 23-136] | 1 µM
COc1ccc(/C=N/NC(=O)c2sc(-c3scnc3C)nc2C)cc1O [Example 23-137] | 1 µM
COc1ccc(/C=N/NC(=O)c2sc(-c3ncccc3Cl)nc2C)cc1O [Example 23-139] | 1 µM
COc1ccc(/C=N/NC(=O)c2sc(-c3ccc(Cl)cc3)nc2C)cc1B(O)O [Example 23-140] | 1 µM
Cc1cc(/C=N/NC(=O)c2cnc(-c3ccccc3Cl)s2)cc(C)c1O [Example 23-143] | 1 µM
CCCOc1ccccc1-c1nc(C)c(C(=O)N/N=C/c2ccc(OC)cc2)s1 [Example 23-149] | 0.1 µM
Cc1nc(-c2ccc(Cl)cc2)sc1C(=O)N/N=C/c1ccc2c(c1)CCO2 [Example 23-152] | 10 µM
COc1ccccc1-c1nc(C)c(C(=O)N/N=C/c2ccc3c(c2)CCO3)s1 [Example 23-153] | 0.1 µM
COc1ccc(/C=N/NC(=O)c2sc(-c3cccc4c3OCCO4)nc2C)cc1O [Example 23-154] | 10 µM

SMILES | minimal effective concentration
COc1ccccc1-c1nc(C)c(C(=O)N/N=C/c2ccc3occc3c2)s1 [Example 23-159] | 0.1 µM
COc1ccc(/C=N/NC(=O)c2sc(-c3ccccc3OC)nc2C)cc1B(O)O [Example 23-160] | 0.1 µM
Cc1nc(-c2ccc(Cl)cc2)sc1C(=O)N/N=C/c1ccc2occc2c1 [Example 23-161] | 1 µM
COc1ccc(-c2nc(-c3ccccc3C)sc2C(=O)N/N=C/c2cc(C)c(O)c(C)c2)cc1 [Example 23-162] | 1 µM
COc1ccc2c(c1)CC/C2=N\NC(=O)c1sc(-c2ccc(Cl)cc2OC)nc1C [Example 23-165] | 1 µM
COc1ccc(/C=N/NC(=O)c2cc(-c3ccc(Cl)cc3)oc2C)cc1O [Example 23-166, 5-(4-Chlorophenyl)-2-methylfuran-3-carboxylic acid [1-(3-hydroxy-4-methoxyphenyl)methylidene]hydrazide] | 1 µM
Cc1cc(/C=N/NC(=O)c2cc(-c3ccc(Cl)cc3)oc2C)cc(C)c1O [Example 23-167, 5-(4-Chlorophenyl)-2-methylfuran-3-carboxylic acid [1-(4-hydroxy-3,5-dimethylphenyl)methylidene]hydrazide] | 1 µM
COc1ccc(/C=N/NC(=O)c2cc(-c3ccc(Cl)cc3OC)cn2C)cc1 [Example 23-168, 4-(4-Chloro-2-methoxyphenyl)-1-methyl-1H-pyrrole-2-carboxylic acid (4-methoxybenzylidene)hydrazide] | 1 µM
COc1cc(Cl)ccc1-c1cc(C(=O)N/N=C/c2cc(C)c(O)c(C)c2)n(C)c1 [Example 23-169, 4-(4-Chloro-2-methoxyphenyl)-1-methyl-1H-pyrrole-2-carboxylic acid (4-hydroxy-3,5-dimethylbenzylidene)hydrazide] | 10 µM
COc1ccc(/C=N/NC(=O)c2cc(-c3ccc(Cl)cc3OC)cn2C)cc1O [Example 23-170, 4-(4-Chloro-2-methoxyphenyl)-1-methyl-1H-pyrrole-2-carboxylic acid (3-hydroxy-4-methoxybenzylidene)hydrazide] | 10 µM
Cc1cccc(-c2c[nH]c(C(=O)N/N=C/c3cc(C)c(O)c(C)c3)c2)c1C [Example 24-1, 4-(2,3-Dimethylphenyl)-1H-pyrrole-2-carboxylic acid [1-(4-hydroxy-3,5-dimethylphenyl)methylidene]hydrazide] | 1 µM
COc1ccc(/C=N/NC(=O)c2cc(-c3ccc(Cl)cc3)c[nH]2)cc1O [Example 24-2, 4-(4-Chlorophenyl)-1H-pyrrole-2-carboxylic acid [1-(3-hydroxy-4-methoxyphenyl)methylidene]hydrazide] | 1 µM
Cc1cc(/C=N/NC(=O)c2cc(-c3ccc(Cl)cc3)c[nH]2)cc(C)c1O [Example 24-3, 4-(4-Chlorophenyl)-1H-pyrrole-2-carboxylic acid[1-(4-hydroxy-3,5-dimethylphenyl)methylidene]hydrazide] | 0.1 µM
COc1ccc(/C=N/NC(=O)c2cnc(-c3ccc(Cl)cc3)[nH]2)cc1O [Example 25-1, 2-(4-Chlorophenyl)-3H-imidazole-4-carboxylic acid[1-(3-hydroxy-4-methoxyphenyl)methylidene]hydrazide] | 10 µM
Cc1ccccc1-c1ncc(C(=O)N/N=C/c2cc(C)c(O)c(C)c2)[nH]1 [Example 25-2, 2-(2-Methylphenyl)-3H-imidazole-4-carboxylic acid[1-(4-hydroxy-3,5-dimethylphenyl)methylidene]hydrazide] | 10 µM
COc1ccc(/C=N/NC(=O)c2cnc(-c3ccccc3C)[nH]2)cc1O [Example 25-3, 2-(2-Methylphenyl)-3H-imidazole-4-carboxylic acid[1-(3-hydroxy-4-methoxyphenyl)methylidene]hydrazide] | 10 µM
Cc1cc(/C=N/NC(=O)c2cnc(-c3ccccc3C)[nH]2)ccc1O [Example 25-4, 2-(2-Methylphenyl)-3H-imidazole-4-carboxylic acid[1-(4-hydroxy-3-methylphenyl)methylidene]hydrazide] | 10 µM
COc1ccc(/C=N/NC(=O)c2[nH]c(-c3ccc(Cl)cc3)nc2C)cc1O [Example 25-5, 2-(4-Chlorophenyl)-5-methyl-3H-imidazole-4-carboxylic acid[1-(3-hydroxy-4-methoxyphenyl)methylidene]hydrazide] | 10 µM
Cc1cc(/C=N/NC(=O)c2oc(-c3ccc(Cl)cc3)nc2C)cc(C)c1O [Example 26-1, 2-(4-Chlorophenyl)-4-methyloxazole-5-carboxylic acid[N′-(4-hydroxy-3,5-dimethylphenyl)methylidene]hydrazide] | 10 µM
